Laboratory results reported in US11236059B2, “Targeted cytotoxic ratjadone derivatives and conjugates thereof” (HELMHOLTZ-ZENTRUM FUER INFEKTIONSFORSCHUNG GMBH, priority 2017, dated 2022).
Where two headings read alike, the source gives them in different places.

Key:
[1] = system: KB 3.1 (DSMZ ACC 158) cells; test: cells; settings: Homo sapiens, KB 3-1, 120 h
CRM1 = biological target: T1, CRM1 (Homo sapiens, UniProt O14980); test: Monitoring export inhibitory activity (translocation biosensor, HeLaRevBio cells); assay type: cell-based
T1 construct: HeLa cells stably expressing a fluorescent translocation biosensor (HeLaRevBio); endogenous in cells; host or cells: HeLa (HeLaRevBio in A7; HeLa in A8)
Method: Export inhibitory ability of compounds was evaluated with the translocation biosensor system. This cellular assay depends on a recombinantly expressed fusion protein consisting of a nuclear localization signal (SV40-NLS), glutathione S-transferase (GST), green fluorescent protein (GFP) and a nuclear export signal (HIV1-RevNES). Due to the two transport signals (NLS/NES), the biosensor is permanently shuttling between nucleus and cytoplasm but resides prominently in the cytoplasm due to a comparatively stronger NES. Export inhibiting compound induce a nuclear accumulation of the GFP-signal^[65,66] Cell lines were maintained as recommended by the American Type Culture Collection in DMEM containing 5% glutamine (Thermo Fisher Scientific, Waltham, USA) supplemented with 10% FBS (Thermo Fisher Scientific, Waltham, USA). For quantifying the nuclear export inhibitory effect, HeLa cells stably expressing a fluorescent translocation biosensor (HeLaRevBio)^[67] were seeded into black 96 well μclear plates (Greiner, Germany). They next day compounds were added covering an appropriate concentration range. After 1h of incubation, cells were fixed in 4% PFA for 10 min and permeabilized with 0.1% Triton X 100 in PBS for 5 min. After washing with PBS nuclei were labeled with Hoechst H33342 (30 min 10 μg/ml). The intracellular distribution of the biosensor-dependent GFP signal was quantitatively evaluated with the high content imaging system ImageXpress MicroXLS (Molecular Devices, Sunnyvale, USA). By using the translocation enhanced application module (Molecular Devices, Sunnyvale, USA) the GFP-intensity was quantified in the cytoplasm and nuclear region. As final readout the difference of Mean Inner and Mean Outer Intensity was calculated. IC50s of nuclear export inhibition were calculated using Sigma Plot with four parameter logistics curve regression (Systat Software GmbH, Erkrath, Germany). […] The following day compounds were added at 125 nM final concentration.

[2] = system: SKOV-3 (DSMZ ATCC HTB 77) cells; test: cells; assay type: cell-based; settings: Homo sapiens, SK-OV-3, 120 h
Method: (§1) 60 μL of serial dilutions of the test compound were given to 120 μL of suspended cells (50.000/mL) in wells of 96-well plates. After 5 days of incubation growth inhibition (IC50) was determined using an MTT assay.^[64]

[3] = system: MCF-7 (DSMZ ACC 115) cells; test: cells; assay type: cell-based; settings: Homo sapiens, MCF7, 120 h
Method: as §1

[4] = system: A549 (DSMZ ACC 107) cells; test: cells; assay type: cell-based; settings: Homo sapiens, A549, 120 h
Method: as §1

[5] = read-out: IC50 [nM] KB-3.1, growth inhibition, 5 days of incubation, MTT assay
[6] = read-out: IC50 [nM] SK-OV-3, growth inhibition, 5 days of incubation, MTT assay
[7] = read-out: IC50 [nM] MCF-7, growth inhibition, 5 days of incubation, MTT assay
[8] = read-out: IC50 [nM] A-549, growth inhibition, 5 days of incubation, MTT assay
[9] = HeLa cells stably expressing translocation biosensor, 1h of incubation, read-out: IC50 [nM] CRM1 (nuclear export inhibition)

T1 sequence (O14980 whole entry): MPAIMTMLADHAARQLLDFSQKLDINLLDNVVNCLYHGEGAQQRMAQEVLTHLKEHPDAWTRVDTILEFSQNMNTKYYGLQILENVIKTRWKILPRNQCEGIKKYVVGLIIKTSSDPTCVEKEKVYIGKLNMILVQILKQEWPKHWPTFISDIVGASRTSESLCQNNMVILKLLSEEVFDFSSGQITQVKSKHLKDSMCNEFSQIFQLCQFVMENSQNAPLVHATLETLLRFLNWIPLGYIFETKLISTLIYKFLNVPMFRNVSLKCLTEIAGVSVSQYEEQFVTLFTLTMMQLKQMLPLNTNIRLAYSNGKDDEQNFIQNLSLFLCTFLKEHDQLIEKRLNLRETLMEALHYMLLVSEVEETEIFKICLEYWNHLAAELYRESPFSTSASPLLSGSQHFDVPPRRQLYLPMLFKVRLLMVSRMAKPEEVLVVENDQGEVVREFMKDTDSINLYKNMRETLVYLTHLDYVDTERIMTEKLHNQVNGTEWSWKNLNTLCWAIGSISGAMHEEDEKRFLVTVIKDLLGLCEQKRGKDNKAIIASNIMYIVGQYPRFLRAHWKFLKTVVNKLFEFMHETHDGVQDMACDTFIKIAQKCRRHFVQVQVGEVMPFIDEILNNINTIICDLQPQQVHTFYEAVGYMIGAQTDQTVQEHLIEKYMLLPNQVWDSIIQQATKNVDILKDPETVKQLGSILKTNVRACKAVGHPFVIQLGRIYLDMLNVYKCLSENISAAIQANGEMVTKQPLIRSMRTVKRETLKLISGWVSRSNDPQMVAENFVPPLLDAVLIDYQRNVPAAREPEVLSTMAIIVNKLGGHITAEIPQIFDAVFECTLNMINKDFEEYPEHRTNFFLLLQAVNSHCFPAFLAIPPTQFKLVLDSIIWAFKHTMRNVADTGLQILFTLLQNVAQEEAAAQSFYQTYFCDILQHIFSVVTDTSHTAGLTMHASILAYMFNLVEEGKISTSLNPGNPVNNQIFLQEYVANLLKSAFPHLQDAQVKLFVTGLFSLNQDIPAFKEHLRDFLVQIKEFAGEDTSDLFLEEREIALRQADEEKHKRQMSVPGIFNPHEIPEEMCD

SMILES | IC50 [1, 5] [nM] | IC50 (CRM1) [nM] | IC50 [2, 6] [nM] | IC50 [3, 7] [nM] | IC50 [4, 8] [nM] | IC50 (CRM1; [9]) [nM] | IC50 ([1]; read-out: IC50 [nM] KB-3.1) [nM] | IC50 ([2]; growth inhibition, 5 days of incubation, MTT assay, read-out: IC50 [nM] SK-OV-3) [nM] | IC50 ([3]; growth inhibition, 5 days of incubation, MTT assay, read-out: IC50 [nM] MCF-7) [nM] | IC50 ([4]; growth inhibition, 5 days of incubation, MTT assay, read-out: IC50 [nM] A-549) [nM]
C/C=C/[C@@H]1O[C@H]([C@@H](/C=C/C=C(\C)C[C@@H](C)/C=C(C)\C=C\[C@H]2CC=CC(=O)O2)NC(=O)OC)C[C@@H](O)[C@@H]1C [16S-Amino-Ratjadone methyl carbamate 20, methyl ((1R,2E,4E,7R,8Z,10E)-1-((2S,4R,5S,6S)-4-hydroxy-5-methyl-6-((E)-prop-1-en-1-yl)tetrahydro-2H-pyran-2-yl)-5,7,9-trimethyl-11-((R)-6-oxo-3,6-dihydro-2H-pyran-2-yl)undeca-2,4,8,10-tetraen-1-yl)carbamate] | 8.18 | 23.5 | – | – | – | – | – | – | – | –
C#CCCC(=O)N[C@H](/C=C/C=C(\C)C[C@@H](C)/C=C(C)\C=C\[C@H]1CC=CC(=O)O1)[C@@H]1C[C@@H](O)[C@H](C)[C@H](/C=C/C)O1 [Compound 22, N-((1R,2E,4E,7R,8Z,10E)-1-((2S,4R,5S,6S)-4-hydroxy-5-methyl-6-((E)-prop-1-en-1-yl)tetrahydro-2H-pyran-2-yl)-5,7,9-trimethyl-11-((R)-6-oxo-3,6-dihydro-2H-pyran-2-yl)undeca-2,4,8,10-tetraen-1-yl)pent-4-ynamide] | 1.05 | – | 0.44 | 0.4 | 0.58 | 23.2 | – | – | – | –
C#CCCOC(=O)N[C@@H](/C=C/C=C(\C)C[C@@H](C)/C=C(C)\C=C\[C@H]1CC=CC(=O)O1)[C@@H]1C[C@@H](O)[C@H](C)[C@H](/C=C/C)O1 [Compound 25, But-3-yn-1-yl ((1S,2E,4E,7R,8Z,10E)-1-((2S,4R,5S,6S)-4-hydroxy-5-methyl-6-((E)-prop-1-en-1-yl)tetrahydro-2H-pyran-2-yl)-5,7,9-trimethyl-11-((R)-6-oxo-3,6-dihydro-2H-pyran-2-yl)undeca-2,4,8,10-tetraen-1-yl)carbamate] | 1.23 | – | 1.2 | 0.62 | 2.45 | 12 | – | – | – | –
C/C=C/[C@@H]1O[C@H](C(=O)/C=C/C=C(\C)C[C@@H](C)/C=C(C)\C=C\[C@H]2CC=CC(=O)O2)CC(=O)[C@@H]1C [16,19-Dioxo-Ratjadone 10, (R)-6-((R,1E,3Z,7E,9E)-3,5,7-trimethyl-11-((2S,5R,6S)-5-methyl-4-oxo-6-((E)-prop-1-en-1-yl)tetrahydro-2H-pyran-2-yl)-11-oxoundeca-1,3,7,9-tetraen-1-yl)-5,6-dihydro-2H-pyran-2-one] | 3.98 | – | 1.59 | 2.87 | 9.72 | 17.5 | – | – | – | –
C#CCCC(=O)NCCSSCCC(=O)N[C@H](/C=C/C=C(\C)C[C@@H](C)/C=C(C)\C=C\[C@H]1CC=CC(=O)O1)[C@@H]1C[C@@H](O)[C@H](C)[C@H](/C=C/C)O1 [N-(2-((3-(((1R,2E,4E,7R,8Z,10E)-1-((2S,4R,5S,6S)-4-hydroxy-5-methyl-6-((E)-prop-1-en-1-yl)tetrahydro-2H-pyran-2-yl)-5,7,9-trimethyl-11-((R)-6-oxo-3,6-dihydro-2H-pyran-2-yl)undeca-2,4,8,10-tetraen-1-yl)amino)-3-oxopropyl)disulfaneyl)-ethyl)pent-4-ynamide] | 1.86 | – | 1.09 | 0.17 | 0.86 | – | – | – | – | –
C#CCNC1C[C@@H]([C@H](O)/C=C/C=C(\C)C[C@@H](C)/C=C(C)\C=C\[C@H]2CC=CC(=O)O2)O[C@@H](/C=C/C)[C@H]1C (stereo partly drawn) [N-Propargyl-19-amino-Ratjadone 42, (6R)-6-((1E,3Z,5R,7E,9E,11R)-11-hydroxy-3,5,7-trimethyl-11-((2S,5S,6S)-5-methyl-6-((E)-prop-1-en-1-yl)-4-(prop-2-yn-1-ylamino)tetrahydro-2H-pyran-2-yl)undeca-1,3,7,9-tetraen-1-yl)-5,6-dihydro-2H-pyran-2-one] | 1.23 | – | 2.63 | 1.31 | 1.12 | 18.3 | – | – | – | –
C#CCCOC(=O)N[C@H](C(=O)N[C@@H](CCCNC(N)=O)C(=O)Nc1ccc(COC(=O)N[C@H](/C=C/C=C(\C)C[C@@H](C)/C=C(C)\C=C\[C@H]2CC=CC(=O)O2)[C@@H]2C[C@@H](O)[C@H](C)[C@H](/C=C/C)O2)cc1)C(C)C [But-3-yn-1-yl ((S)-1-(((S)-1-((4-(((((1R,2E,4E,7R,8Z,10E)-1-((2S,4R,5S,6S)-4-hydroxy-5-methyl-6-((E)-prop-1-en-1-yl)tetrahydro-2H-pyran-2-yl)-5,7,9-trimethyl-11-((R)-6-oxo-3,6-dihydro-2H-pyran-2-yl)undeca-2,4,8,10-tetraen-1-yl)carbamoyl)-oxy)methyl)phenyl)amino)-1-oxo-5-ureidopentan-2-yl)amino)-3-methyl-1-oxobutan-2-yl)carbamate] | – | – | – | – | – | – | 9.2 | 13.6 | 12.5 | 25.1
C/C=C/[C@@H]1O[C@H]([C@@H](/C=C/C=C(\C)C[C@@H](C)/C=C(C)\C=C\[C@H]2CC=CC(=O)O2)NC(=O)CCSSc2ccccn2)C[C@@H](O)[C@@H]1C [2-PySS(CH2)2(CO)NH-Ratja 35, N-((1R,2E,4E,7R,8Z,10E)-1-((2S,4R,5S,6S)-4-Hydroxy-5-methyl-6-((E)-prop-1-en-1-yl)tetrahydro-2H-pyran-2-yl)-5,7,9-trimethyl-11-((R)-6-oxo-3,6-dihydro-2H-pyran-2-yl)undeca-2,4,8,10-tetraen-1-yl)-3-(pyridin-2-yldisulfaneyl)propanamide] | 8.8 | – | 24.6 | 26 | 30.6 | 44.1 | – | – | – | –
C/C=C/[C@@H]1O[C@H]([C@@H](/C=C/C=C(\C)C[C@@H](C)/C=C(C)\C=C\[C@H]2CC=CC(=O)O2)NC(=O)OCc2ccc(NC(=O)[C@H](CCCNC(N)=O)NC(=O)[C@@H](NC(=O)OC[C@@H]3[C@@H]4CCC#CCC[C@@H]43)C(C)C)cc2)C[C@@H](O)[C@@H]1C [BCN—O(CO)HN-Val-Cit-PABO(CO)NH-Ratja 31, ((1R,8S,9s)-bicyclo[6.1.0]non-4-yn-9-yl)methyl ((S)-1-(((S)-1-((4-(((((1R,2E,4E,7R,8Z,10E)-1-((2S,4R,5S,6S)-4-hydroxy-5-methyl-6-((E)-prop-1-en-1-yl)tetrahydro-2H-pyran-2-yl)-5,7,9-trimethyl-11-((R)-6-oxo-3,6-dihydro-2H-pyran-2-yl)undeca-2,4,8,10-tetraen-1-yl)carbamoyl)oxy)methyl)phenyl)amino)-1-oxo-5-ureidopentan-2-yl)amino)-3-methyl-1-oxobutan-2-yl)carbamate] | 25.1 | 346 | 34.7 | 20.2 | 39.5 | – | – | – | – | –
C/C=C/[C@@H]1O[C@H]([C@H](/C=C/C=C(\C)C[C@@H](C)/C=C(C)\C=C\[C@H]2CC=CC(=O)O2)NC(=O)OC)C[C@@H](O)[C@@H]1C [16R-Amino-Ratjadone methyl carbamate 19, methyl ((1S,2E,4E,7R,8Z,10E)-1-((2S,4R,5S,6S)-4-hydroxy-5-methyl-6-((E)-prop-1-en-1-yl)tetrahydro-2H-pyran-2-yl)-5,7,9-trimethyl-11-((R)-6-oxo-3,6-dihydro-2H-pyran-2-yl)undeca-2,4,8,10-tetraen-1-yl)carbamate] | 2.53 | 12.5 | – | – | – | – | – | – | – | –
